From patent US11564964B2, “Compositions and methods for the treatment of coronavirus infection” (priority 2021, dated 2023)
≈ marks a conversion by molar mass, not a printed value.

Tests used:
[1] = tested on: SARS-CoV-2 (hCoV-19/Egypt/NRC-3/2020 isolate); conditions: for in vitro SARS-CoV-2 testing (activity in words): SARS CoV-2 infected Vero E6 cells; for activity against SARS CoV-2 (in words): (100 μg/mL)
MTT cytotoxicity assay = assay type: cell-based; conditions: African green monkey, Vero E6 cells, read-out: cytotoxicity IC50 against Vero E6 cells
Procedure: Vero-E6 cells with the previously reported (MTT) method^34 were used to test the cytotoxic activity of the test compounds and extracts. In brief, the cells were plated in 96-well plates and incubated for 24 h at 37° C. in 5% CO2 (100 μL/well at a density of 3×10^5 cells/mL). The cells were then treated with different concentrations of extracts/the tested compounds in triplicates. The supernatant was discarded after another 24 h, and cell monolayers were washed three times with sterile 1× PBS. MTT solution was added to each well and then incubated at 37° C. for 4 h. The produced formazan crystals were dissolved with 200 μL of acidified isopropanol (0.04 M HCl in absolute isopropanol=0.073 mL HCL in 50 mL isopropanol). Thereafter, the absorbance of formazan solutions was measured at λmax 540 nm using a multi-well plate reader. The following equation was applied to calculate the percentage of cytotoxicity compared to the untreated cells:
[formula] The produced plot of % cytotoxicity versus sample concentrations was then used to calculate the IC50s. Viral Inhibitory Concentration 50 (IC50) Determination

[2] = tested on: SARS-CoV-2 (hCoV-19/Egypt/NRC-3/2020 isolate); assay: microbe, parasite or virus in culture; conditions: Severe acute respiratory syndrome coronavirus 2, Vero C1008, read-out: IC50, inhibition of SARS CoV-2 viral replication
SARS-CoV-2 mRNA = assay: Quantitative real time measurement of SARS-CoV-2 mRNA expression (TaqMan RT-PCR) in infected Vero E6 cells; assay type: cell-based; conditions: different concentrations, 24 h and 48 h post treatment, normalized to infected untreated cells
Procedure: The RNA extraction of expressed SARS-CoV-2 mRNA in infected treated and untreated cell monolayers was performed using QlAamp Viral RNA Mini Kit according to manufacturer instructions. To assess the viral mRNA expression in infected/treated and infected/untreated Vero E6 cells, TaqMan Real-time RT-PCR assay was performed. Briefly, 100 ng of extracted RNA were mixed with TaqMan primers to quantify SARS-CoV-2 mRNA (targeting […]: HKU-ORF1b-nsp14F: 5′-[…]-3′ (SEQ ID NO: 1), HKU-ORF1b-nsp141P Taqman Probe: 5′-FAM-[…]-TAMRA-3′ (SEQ ID NO: 2), HKU-ORF1b-nsp14R: 5′-[…]-3′ (SEQ ID NO: 3) together with the other components of Verso 1-step RT-qPCR Kit plus Rox (Invitrogen) in recommended volumes (up to 50 μl reaction) and thermal protocol conditions.
To validate our in silico-derived hits, we evaluated their antiviral activity against the clinical SARS-CoV-2 viral isolate in Vero E6 cells. […] Afterwards, the SARS CoV-2 infected Vero E6 cells were incubated with each of the tested compounds at different concentrations. The antiviral activity was then evaluated by determining the viral copy numbers in the cell supernatant via qRT-PCR. […] The poor antiviral activity of other metabolites (>100 μg/mL) might be attributed to their high polarity that could hinder the permeability across the cell membrane^39.

**Q.** For O=c1cc(-c2ccc(O)cc2)oc2cc(O[C@@H]3O[C@H](CO)[C@@H](O)[C@H](O)[C@H]3O)cc(O)c12 [apigenin 7-O-glucoside], which “in vitro SARS-CoV-2 testing (activity in words)” value (from here on “in vitro SARS-CoV-2 testing”) [1] is on record?
**A.** inactive

**Q.** Which “in vitro SARS-CoV-2 testing” value [1] does the source give for COc1ccc(C[C@H]2COC(=O)[C@@H]2Cc2ccc(O[C@@H]3O[C@H](CO)[C@@H](O)[C@H](O)[C@H]3O)c(OC)c2)cc1OC [arctiin] here?
**A.** inactive

**Q.** And the IC50 at 24 h (MTT cytotoxicity assay)?
**A.** > 50 µg/mL

**Q.** For O=c1c(O[C@@H]2O[C@H](CO)[C@@H](O)[C@H](O)[C@H]2O)c(-c2ccc(O)cc2)oc2cc(O)cc(O)c12 [astragalin], which “in vitro SARS-CoV-2 testing” value [1] is on record?
**A.** inactive

**Q.** What about the IC50 at 24 h (MTT cytotoxicity assay) of the same molecule?
**A.** > 50 µg/mL

**Q.** With C=C1C(=O)O[C@@H]2/C=C(\CO)CC/C=C(\C)C[C@H](OC(=O)C(=C)[C@@H](O)CO)[C@@H]12 [cnicin] as the molecule, how does the IC50 [2] read?
**A.** 1.18 µg/mL (≈ 3.12 µM)

**Q.** What about the “Si=CC50/IC50” value ([1]; safety profile, Vero E6 / SARS CoV-2) of the same molecule?
**A.** 70.3

**Q.** What about the “inhibitory effect on the viral mRNA” value (SARS-CoV-2 mRNA) of the same molecule?
**A.** significant viral mRNA inhibition

**Q.** For O=c1cc(-c2ccc(O)c(O)c2)oc2cc(O)cc(O)c12 [luteolin], which “activity against SARS CoV-2 (in words)” value [1] is on record?
**A.** inactive

**Q.** With COc1cc(C[C@H]2COC(=O)[C@]2(O)Cc2ccc(O[C@@H]3O[C@H](CO)[C@@H](O)[C@H](O)[C@H]3O)c(OC)c2)ccc1O [nortracheloside] as the molecule, how does the “in vitro SARS-CoV-2 testing” value [1] read?
**A.** inactive

**Q.** Which “activity against SARS CoV-2 (in words)” value [1] does the source give for CC[C@H](CC[C@@H](C)[C@H]1CC[C@H]2[C@@H]3CC=C4C[C@@H](O[C@@H]5O[C@H](CO)[C@@H](O)[C@H](O)[C@H]5O)CC[C@]4(C)[C@H]3CC[C@]12C)C(C)C [sitogluside] here?
**A.** inactive
